This note sets out measurements from patent US20090211893A1, “Photo-Activatable Amino Acids” (priority 2005, published 2009).

Experiment [1] relates to HA-tagged human PGRMC1. The experiment can be described thus: Competition of PGRMC1 cross-linking by natural amino acids. The experiment is classed as cell-based. The conditions noted are these: 3 mM competing amino acid, COS7 cells in LM-4. As to the method:
FIG. 4: Specificity of incorporation and cross-linking by photo-Met and photo-Leu. COS7 cells were transfected with HA-tagged human PGRMC1 and were grown in LM-4 in the absence or presence of photo-Leu (A) or photo-Met (B) with addition of 3 mM of the indicated competing amino acid. cross-linked products formed after UV-irradiation were detected by SDS-PAGE followed by western blotting against the HA-epitope. (C) COS7 cells were grown in the presence of 1.7 mM [1-^14C]photo-Met, a constant trace amount of [^3H]Phe and 3 mM of competing unlabeled amino acids as indicated in the legend. Protein was precipitated and protein-bound radioactivity was determined by scintillation counting. […] The control value obtained in the absence of competing amino acid (con) is set to 100. Data are average±SD of triplicate determinations.
If so, addition of the complementary naturally occurring amino acid should strongly reduce incorporation and inhibit photo-crosslinking. […] To find out if competition for cross-linking reflects competition for incorporation, we competed incorporation of [1-^14C]photo-Met with the same set of amino acids (FIG. 4c). […] It should be noted that Met, Val, Leu and Ile all are transported into cells by the L-type transport system^25, which presumably also transports the three photo-amino acids. The strong difference in competition by Met and Leu versus Val and Ile excludes competition at the level of uptake.

Experiment [2] deals with caveolin-1. Briefly: Photo-crosslinking of transfected caveolin-1 in COS7 cells. The experiment is classed as cell-based, human. The conditions noted are these: irradiated samples, COS7 cells in LM-4. As to the method:
FIG. 3: Photo-crosslinking induced by photo-amino acids. COS7 cells (panels a,b) or HeLa cells (panel c) were grown in LM-4 (panel a) or LM-2 (panels b,c) in the absence or presence of L-photo-Leu (pL), L-photo-Met (pM) or DL-photo-Ile (pl) or mixtures of them (pLM or PLMI) followed by UV irradiation (+) or no irradiation (−). cross-linked products formed after UV-irradiation were detected by SDS-PAGE followed by western blotting using (a) anti-caveolin 1 to detect overexpressed caveolin 1, (b) anti-stomatin to detect endogenous stomatin or (c) anti-EEA1 to detect endogenous EEA1. In panel b, lanes 8 and 9 show cross-linking with two different concentrations of the chemical cross-linker DSS for comparison of cross-linking efficiency. In panel c, photocrosslinking of endogenous EEA1 by photo-Leu and photo-Met is compared to chemical cross-linking using DSS or para-formaldehyde (PFA) as indicated. Note that chemical cross-linking leads to protein aggregates that are not resolvable by SDS-PAGE while photocrosslinking identifies more than six discrete cross-linked bands.
COS7 (monkey kidney) cells were grown in DMEM high glucose (Gibco no. 11995; with L-glutamine and Na-pyruvate)+10% FCS. Typically, 3 cm2 of cells are needed for a cross-linking experiment with detection by western blotting. At about 70%, medium was replaced by LM-4 (DMEM lacking Met, Leu, Ile and Val and phenol red, supplemented with 5% dialyzed FCS) or by LM-2 (LM-4+1 mM of each Ile and Val). Photo-amino acids were added to a final concentration of 4 mM photo-Leu and photo-Ile, 1.7 mM photo-Met and cells were cultivated for further 22 h followed by washing with PBS and UV-irradiation using a 200 W high pressure mercury lamp (Oriel Photomax) with a glass filter to remove wavelengths shorter 310 nm. The samples were placed at a distance of 38 cm to the light source, corresponding to a illuminated area of 105 mm diameter. […] We used an irradiation time 1-3 min for experiments with living cells. […] Lysis of cells, SDS-PAGE and western blotting were done as described^33. […]

Each structure is given as a SMILES string.

On to `CC1(CCC(N)C(=O)O)N=N1` [photo-Met, L-2-amino-5,5′-azi-hexanoic acid], for which, in experiment [1], the “competition of cross-linking by Met, Val, Leu and Ile” value is “mainly by Met, and to a lower extent by Leu”; the “effect of Val and Ile on cross-linking” value was “did not compete, but even enhance”. The “formation of covalent caveolin dimers upon UV irradiation” value in experiment [2] is reported as “significant formation of a cross-linked dimer”.
